# Tests used:
# [1] = Process stabilization of polypropylene: yellowness index of plaques (ASTM D1925); conditions: 0.075% by weight of each additive, 0.075% calcium stearate
# From the text: (§1) The test additives are incorporated into the polypropylene by dry blending or, when the additive is a liquid, using a minimum amount of methylene chloride solvent. The solvent is then removed by evaporation under reduced pressure.
# [2] = Process stabilization of polypropylene at 525° F.: melt flow rate (ASTM D1238); conditions: 0.075% by weight of each additive, 0.075% calcium stearate, 525° F.
# Method: as §1
# After each of the first, third and fifth extrusions, the melt flow rate (in grams/10 minutes) is determined by ASTM method D1238 on the pellets obtained from the extruder.
# [3] = Apparent bulk density (ASTM D-1895); type: physicochemical
# Method: The apparent bulk density of the solids is measured according to the method of ASTM D-1895 (79). A higher apparent bulk density allows for a greater mass per unit volume which affords advantages in packaging of the solid product, such as lower costs for the packaging material, less storage space is required, etc.
# [4] = Solubility in lubricating oil (Mobil BB oil); type: physicochemical
# Method: The following experiments are performed to determine the solubility of amorphous compound A and crystalline compound B in Mobil BB oil. Both compounds have the same uniform particle sizes (40-70 micron).
# Compound A=amorphous form of 2,2',2"-nitrilo-[triethyl-tris-(3,3',5,5'-tetra-tert-butyl-1,1'-biphenyl-2,2'-diyl) phosphite], prepared in accordance with instant Example 1.
# Compound B=crystalline form of 2,2',2"-nitrilo[triethyl-tris-(3,3',5,5'-tetra-tert-butyl-1,1'-biphenyl-2,2'-diyl) phosphite], prepared in accordance with Example 4 of U.S. Pat. No. 4,318,845.
# Into a vial of 980 mg. of Mobil BB oil is added 20 mg. of compound A at ambient temperature. For the first 30 minutes, the vial is shaken every 10 minutes. After the initial 30 minutes, the vial is left standing.
# Into a vial of 980 mg. of Mobil BB oil is added 20 mg. of compound B at ambient temperature. For the first 30 minutes, the vial is shaken every 10 minutes. After the initial 30 minutes, the vial is left standing.
# Into a vial of 980 mg. of Mobil BB oil is added 20 mg. of compound A at ambient temperature. The vial is then placed into a 60° C. oil bath.
# Into a vial of 980 mg. of Mobil BB oil is added 20 mg. of compound B at ambient temperature. The vial is then placed into a 60° C. oil bath.
# Into a vial of 990 mg. of Mobil BB oil is added 10 mg. of compound A at ambient temperature. […] is shaken every 10 minutes. After the initial 30 minutes, the vial is left standing.
# Into a vial of 990 mg. of Mobil BB oil is added 10 mg. of compound B at ambient temperature. […] is shaken every 10 minutes. After the initial 30 minutes, the vial is left standing.
# [5] = Solubility in LLDPE film by diffusion-in, X-ray fluorescence; type: physicochemical
# Method: Experiments are carried out to determine the solubility of the instant compound into linear low density polyethylene (LLDPE) films at 20° C., 40° C. and 60° C. by diffusion-in of a relatively homogeneous particle size (<70 microns) of the test sample suspended in silicon oil.
# Each sample is carefully ground with a mortar and pestle and the particle size below 70 microns is separated by sieving with a 200 mesh screen. The powder is then suspended in silicon oil (polydimethylsiloxane, L-45, Union Carbide Chemicals) at a concentration of approximately 38% (wt/wt). A few drops of this suspension is placed on a 10 mil (0.254 mm) thick, 2"×2" (5.08 cm×5.08 cm) compression molded film and a second film of the same dimension is placed on top. The films are gently pressed together so that the suspension forms a thin liquid layer between the polymer films. Excess suspension is removed and the procedure is repeated till a stack of eight films (six films for evaluation) are prepared. The stack is then placed between two 2.5"×2.5" (6.35 cm×6.35 cm) ceramic tiles and wrapped in aluminum foil and held together with a G-clamp. Each stack is aged at 20° C., 40° C. and 60° C. under a nitrogen atmosphere. At specified intervals, a single film is removed from the stack and the excess suspension is washed from the film with hexane. The film is then analyzed by X-ray fluorescence for total phosphorus content. LLDPE containing 0, 1000 ppm and 2000 ppm of the test compound are used as standard controls for this X-ray fluorescence method.
# [6] = Solubility in lubricating oil (Mobil BB oil); type: physicochemical; conditions: 1% by weight in Mobil BB oil (Exp. 4f), at 60° C. per footnote
smiles,measurement,setting,value
"CC(C)(C)c1cc(CCC(=O)OCC(COC(=O)CCc2cc(C(C)(C)C)c(O)c(C(C)(C)C)c2)(COC(=O)CCc2cc(C(C)(C)C)c(O)c(C(C)(C)C)c2)COC(=O)CCc2cc(C(C)(C)C)c(O)c(C(C)(C)C)c2)cc(C(C)(C)C)c1O [Base, neopentanetetrayl tetrakis(3,5di-tert-butyl-4-hydroxyhydrocinnamate)]",Yellowness Index (YI) Values after Extrusion 5,[1]; after fifth extrusion,11.0
same,Yellowness Index (YI) Values after Extrusion 1,[1]; after first extrusion,7.6
same,Yellowness Index (YI) Values after Extrusion 3,[1]; after third extrusion,9.0
same,Melt Flow after Extrusion 5,[2]; after fifth extrusion,17.5 grams/10 minutes
same,Melt Flow after Extrusion 1,[2]; after first extrusion,8.1 grams/10 minutes
same,Melt Flow after Extrusion 3,[2]; after third extrusion,12.9 grams/10 minutes
"CC(C)(C)c1cc(C(C)(C)C)c2op(OCCN(CCOp3oc4c(C(C)(C)C)cc(C(C)(C)C)cc4c4cc(C(C)(C)C)cc(C(C)(C)C)c4o3)CCOp3oc4c(C(C)(C)C)cc(C(C)(C)C)cc4c4cc(C(C)(C)C)cc(C(C)(C)C)c4o3)oc3c(C(C)(C)C)cc(C(C)(C)C)cc3c2c1 [Example 4 of U.S. 4,318,845, 2,2',2""-nitrilo[triethyl-tris-(3,3',5,5'-tetra-tert-butyl-1,1'-biphenyl-2,2'-diyl)phosphite], reference compound]",Bulk Density,[3],0.44 g/mL
same,Observation,"[4]; 1% by weight in Mobil BB oil, RT, 1.5 hrs., listed as B",Cloudy
same,Observation,"[4]; 1% by weight in Mobil BB oil, RT, 1.5 hrs., listed as compound B",cloudy suspension
same,Time to clear solution,"[4]; 1% by weight in Mobil BB oil, RT, listed as compound B",16 h
same,Observation,"[4]; 2% by weight in Mobil BB oil, 60° C. oil bath, 10 min., listed as B",Cloudy
same,Observation,"[4]; 2% by weight in Mobil BB oil, 60° C. oil bath, 10 min., listed as compound B",cloudy suspension
same,Time to clear solution,"[4]; 2% by weight in Mobil BB oil, 60° C. oil bath, listed as B",5 h
same,Time to clear solution,"[4]; 2% by weight in Mobil BB oil, 60° C. oil bath, listed as compound B",16 h
same,Observation,"[4]; 2% by weight in Mobil BB oil, RT, 2.5 hrs., listed as B",Cloudy
same,Observation,"[4]; 2% by weight in Mobil BB oil, RT, 2.5 hrs., listed as compound B",cloudy suspension
same,Time to clear solution,"[4]; 2% by weight in Mobil BB oil, RT, listed as B",16 h
same,Time to clear solution,"[4]; 2% by weight in Mobil BB oil, RT, listed as compound B",16 h
same,Solubility of Compound in LLDPE at 20° C.,[5]; interval 15 (time unit not given),1500 ppm
same,Solubility of Compound in LLDPE at 20° C.,[5]; interval 28 (time unit not given),1000 ppm
same,Solubility of Compound in LLDPE at 20° C.,[5]; interval 35 (time unit not given),1200 ppm
same,Solubility of Compound in LLDPE at 20° C.,[5]; interval 44 (time unit not given),1200 ppm
same,Solubility of Compound in LLDPE at 40° C.,[5]; interval 10 (time unit not given),500 ppm
same,Solubility of Compound in LLDPE at 40° C.,[5]; interval 17 (time unit not given),1750 ppm
same,Solubility of Compound in LLDPE at 40° C.,[5]; interval 25 (time unit not given),750 ppm
same,Solubility of Compound in LLDPE at 40° C.,[5]; interval 34 (time unit not given),400 ppm
same,Solubility of Compound in LLDPE at 40° C.,[5]; interval 40 (time unit not given),600 ppm
same,Solubility of Compound in LLDPE at 40° C.,[5]; interval 47 (time unit not given),1400 ppm
same,Solubility of Compound in LLDPE at 20° C.,"[5]; third section, interval 6 (time unit not given)",1000 ppm
same,Solubility of Compound in LLDPE at 20° C.,"[5]; third section, interval 14 (time unit not given)",800 ppm
same,Solubility of Compound in LLDPE at 20° C.,"[5]; third section, interval 22 (time unit not given)",1000 ppm
same,Solubility of Compound in LLDPE at 20° C.,"[5]; third section, interval 28 (time unit not given)",900 ppm
same,Solubility of Compound in LLDPE at 20° C.,"[5]; third section, interval 37 (time unit not given)",900 ppm
same,Time to clear solution,[6],5 h
